# Test results published in ChEMBL document CHEMBL1148588, “Anthrax lethal factor protease inhibitors: synthesis, SAR, and structure-based 3D QSAR studies” (J Med Chem, 2006).
# Molecular target: T1, Lethal factor (Bacillus anthracis, UniProt P15917)
# T1 sequence (P15917 whole entry): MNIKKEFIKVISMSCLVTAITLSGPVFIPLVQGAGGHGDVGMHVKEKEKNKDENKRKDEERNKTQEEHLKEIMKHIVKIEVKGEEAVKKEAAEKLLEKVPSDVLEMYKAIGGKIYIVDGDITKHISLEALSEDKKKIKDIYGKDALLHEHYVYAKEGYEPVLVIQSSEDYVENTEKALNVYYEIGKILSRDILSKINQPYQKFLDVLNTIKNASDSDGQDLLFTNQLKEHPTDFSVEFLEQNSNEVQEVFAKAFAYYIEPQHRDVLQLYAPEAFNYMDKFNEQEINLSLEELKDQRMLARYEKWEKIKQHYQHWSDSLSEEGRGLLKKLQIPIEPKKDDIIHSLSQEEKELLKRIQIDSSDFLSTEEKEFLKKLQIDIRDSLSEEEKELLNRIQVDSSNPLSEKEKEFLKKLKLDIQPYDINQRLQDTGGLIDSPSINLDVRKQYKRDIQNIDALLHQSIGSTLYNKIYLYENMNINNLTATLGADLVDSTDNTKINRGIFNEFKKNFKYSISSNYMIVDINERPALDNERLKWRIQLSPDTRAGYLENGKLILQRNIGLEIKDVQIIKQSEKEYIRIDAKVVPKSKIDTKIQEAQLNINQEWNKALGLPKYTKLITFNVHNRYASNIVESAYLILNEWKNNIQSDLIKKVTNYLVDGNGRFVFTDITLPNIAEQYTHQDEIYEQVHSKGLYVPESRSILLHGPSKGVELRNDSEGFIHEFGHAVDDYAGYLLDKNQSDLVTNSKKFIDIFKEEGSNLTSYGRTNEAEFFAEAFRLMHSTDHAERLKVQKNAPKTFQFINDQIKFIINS
# Assay: Inhibitory activity against anthrax lethal factor metalloprotease
SMILES,IC50 [µM],Log IC50
O=C(O)CN1C(=O)S/C(=C\c2ccc(-c3ccc(Cl)cc3[N+](=O)[O-])o2)C1=O,0.5,–
O=C(O)CN1C(=O)S/C(=C\c2ccc(-c3cc(C(F)(F)F)ccc3Cl)o2)C1=O,5.9,–
CN1/C(=C/c2ccc(-c3ccc(Cl)cc3)o2)C(=O)NC1NC(=O)O (stereo not given),> 100,> -4
O=C(O)CN1C(=O)/C(=C/c2ccc(-c3ccc(I)cc3)o2)SC1=S,5.6,–
